Experimental data reported in article PMC6478669, “Engineered Orthogonal Quorum Sensing Systems for Synthetic Gene Regulation in Escherichia coli” (Frontiers in Bioengineering and Biotechnology, 2019).
pEC50: −log10 of the molar value.

Assays:
Test in all cases: GFP reporter induction, plate reader
Assay type in all cases: cell-based
AubR = target: T1, AubR (uncultured bacterium, UniProt K0J3R4); details: read-out: Kmapprox
T1 construct: constitutively expressed from Receiver plasmid (pSB1A3) in E. coli BL21 with hybrid pAub promoter-GFP reporter; acts as dimer

LuxR [1] = target: T2, LuxR (Aliivibrio fischeri, UniProt P12746); details: E. coli BL21 Receiver cells, LB, 37 °C, half-maximal max rate of GFP/OD600
T2 construct: Receiver plasmid in E. coli BL21, regulator cassette upstream of pLux-GFP; same synthetic system as Canton et al. 2008; acts as dimer
T2 sequence (P12746 1-250): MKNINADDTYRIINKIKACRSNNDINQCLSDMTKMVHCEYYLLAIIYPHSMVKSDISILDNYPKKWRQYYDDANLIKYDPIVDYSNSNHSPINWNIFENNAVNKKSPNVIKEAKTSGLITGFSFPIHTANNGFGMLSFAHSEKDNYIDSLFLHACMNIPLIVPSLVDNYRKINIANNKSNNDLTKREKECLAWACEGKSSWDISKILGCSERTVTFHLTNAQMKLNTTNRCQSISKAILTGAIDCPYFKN

LuxR [2] = target: T2, LuxR; details: E. coli BL21 Receiver cells, LB, 37 °C, half-maximal max rate of GFP/OD600; unreliable (little to no response without oxo group)
LasR = target: T3, LasR (Pseudomonas aeruginosa, UniProt P25084); details: E. coli BL21 Receiver cells, LB, 37 °C, half-maximal max rate of GFP/OD600
T3 construct: constitutively expressed from Receiver plasmid (pSB1A3) in E. coli BL21 with hybrid pLas promoter-GFP reporter; acts as dimer
T3 sequence (P25084 whole entry): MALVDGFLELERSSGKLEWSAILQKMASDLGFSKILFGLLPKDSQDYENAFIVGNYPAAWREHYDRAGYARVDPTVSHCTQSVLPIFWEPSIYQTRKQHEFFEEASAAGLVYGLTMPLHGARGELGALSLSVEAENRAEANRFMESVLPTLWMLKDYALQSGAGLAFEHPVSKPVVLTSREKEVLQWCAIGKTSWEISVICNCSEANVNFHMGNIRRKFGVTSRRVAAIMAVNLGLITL

T1 sequence (K0J3R4 1-267): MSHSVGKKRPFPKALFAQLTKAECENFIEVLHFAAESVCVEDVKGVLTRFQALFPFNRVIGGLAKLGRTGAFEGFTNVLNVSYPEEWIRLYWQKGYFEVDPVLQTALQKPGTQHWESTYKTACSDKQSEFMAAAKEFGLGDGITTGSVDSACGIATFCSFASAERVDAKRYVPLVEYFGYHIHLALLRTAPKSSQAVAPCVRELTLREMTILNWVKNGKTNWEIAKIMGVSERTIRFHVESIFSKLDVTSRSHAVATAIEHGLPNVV

Compound	pEC50 (AubR)	Kmapprox (LuxR [1])	also measured
CCCCCCCCCC(=O)CC(=O)N[C@H]1CCOC1=O [3-oxo-C12 HSL]	7.00		
CCCCCC(=O)CC(=O)N[C@H]1CCOC1=O [3-oxo-C8]		~ between 1.00E-7 and 1.00E-8 M	
CCCCCCCCCCCC(=O)N[C@H]1CCOC1=O [C12 HSL]	8.30		
CCCC(=O)N[C@H]1CCOC1=O [C4-HSL]			Kmapprox (LuxR [2]): ~ 1.0E-6–1.0E-5 M
CCCCCCCCCCCC(=O)CC(=O)N[C@H]1CCOC1=O [3-oxo-C14 HSL]		~ between 1.00E-8 and 1.00E-7 M	Kmapprox (LasR): ~ between 1.00E-9 and 1.00E-8 M
